According to US6265617A, “Process for the preparation of 3,5,5-trimethylcyclohexa-3-en-1-one (β-isophorone) by isomerization of 3,5,5- trimethylcyclohexa-2-en-1-one (α-isophorone)” (Degussa-Huls Aktiengesellschaft, priority 1998, dated 2001):

Test: Catalyst activity in liquid-phase isomerization of α-isophorone to β-isophorone
Conditions: for Rate of formation of β-IP: boiling point, normal pressure, 25 vol.% withdrawal
Excerpt: The apparatus for carrying out the isomerization consists of a mushroom-shaped heater, an isomerization flask with attached distillation column, through which a primary mixture composed of α-IP and β-IP is withdrawn, and a pump for recirculating the unreacted α-isophorone left after the purifying distillation of β-IP. […] The suspension is heated to boiling point at normal pressure and the quantity of the α-IP delivered by a Telab pump is coordinated with the quantity of the distillate withdrawn.
The primary distillate obtained is conveyed to a distillation column operating at a partial vacuum of 5 mbar to 100 mbar. […] The bottom product consisting of unreacted α-isophorone is returned to the isomerization reactor.
(§1) Technical sodium hydroxide in various concentrations is stirred into α-IP in the apparatus already described above. With the identical continuous procedure (see Example 1), at the top of the isomerization unit a withdrawal rate of 25 vol.% of a primary distillate is established, based on the quantity of isomerization and the reflux ratio.
as §1, with “potassium carbonate” for “sodium hydroxide”
Various catalysts containing alkali-metal cations are compared with regard to their catalytic activity during the isomerization under conditions corresponding to those in the previous Examples.
Various alkali-metal bases and alkaline-earth bases used as catalysts are compared with regard to their catalytic activity during the isomerization under conditions corresponding to those in the previous Examples.
Various catalysts containing alkali-metal cations and the elements are compared with regard to their catalytic activity during the isomerization under conditions corresponding to those in the previous Examples.

[1] = 2 × 10^-2 mol.% catalyst per mol α-IP
[2] = 0.2 mmol K2CO3 for 1 mol α-IP, illustrative calculation
[3] = 2 × 10^-0 mol.% catalyst per mol α-IP
[4] = 2 × 10^-1 mol.% catalyst per mol α-IP

## [Ca+2].[OH-].[OH-] [Ca(OH)2]
[1]
  Rate of formation of β-IP: 41.1 g β-IP/h/liter α-IP

## O=C(O)O [K2 CO3, potassium carbonate]
  improved space-time yield YR-Z based on the volume of the educt solution used: 80 g β-IP/h per kg α-IP
[2]
  conversion, β-isophorone per kg of catalyst used and per hour: approximately 422.15 kg
  β-IP formation: 74 g β-IP/h/liter
  β-IP formation per kg solution: 80.43 g β-IP/h/kg solution
[3]
  Rate of formation of β-IP: 68.8 g β-IP/h/liter α-IP
[4]
  Rate of formation of β-IP: 76.4 g β-IP/h/liter α-IP
[1]
  Rate of formation of β-IP: 73.8 g β-IP/h/liter α-IP

## O=C(O)O [KHCO3]
[1]
  Rate of formation of β-IP: 64.4 g β-IP/h/liter α-IP

## [K+].[OH-] [KOH]
[1]
  Rate of formation of β-IP: 66.9 g β-IP/h/liter α-IP

## O=C(O)O [Li2 CO3]
[1]
  Rate of formation of β-IP: 48.3 g β-IP/h/liter α-IP

## [AlH4-].[Li+] [LiAIH4]
[1]
  Rate of formation of β-IP: 43.3 g β-IP/h/liter α-IP

## [BH4-].[Li+] [LiBH4]
[1]
  Rate of formation of β-IP: 46.1 g β-IP/h/liter α-IP

## [Li+].[OH-] [LiOH]
[1]
  Rate of formation of β-IP: 61.3 g β-IP/h/liter α-IP

## [Mg+2].[OH-].[OH-] [Mg(OH)2]
[4]
  Rate of formation of β-IP: 9.3 g β-IP/h/liter α-IP
[1]
  Rate of formation of β-IP: 8.2 g β-IP/h/liter α-IP

## O=C(O)O [Na2 CO3, sodium carbonate]
0.2 mol.% catalyst, continuous operation
  calculated yield based on the quantity of catalyst used, Yβ-IP: 229.7 kg β-IP/h/kgcat.
1 mol.% catalyst
  space-time yield (per hour and quantity of catalyst used) Y: 15.357 kg β-IP/h/kg catalyst
  space-time yield YR-Z based on α-IP used: 0.086 kg β-IP/h/liter
[3]
  Rate of formation of β-IP: 72 g β-IP/h/liter α-IP
[1]
  Rate of formation of β-IP: 47.4 g β-IP/h/liter α-IP

## CC(=O)O [Na(CH3 CO2)]
[1]
  Rate of formation of β-IP: 49.2 g β-IP/h/liter α-IP

## CO [Na(OMe)]
[1]
  Rate of formation of β-IP: 46.9 g β-IP/h/liter α-IP

## O=C(O)O [NaHCO3]
[1]
  Rate of formation of β-IP: 55.1 g β-IP/h/liter α-IP

## [H-].[Na+] [NaH]
[1]
  Rate of formation of β-IP: 58.6 g β-IP/h/liter α-IP

## [NH2-].[Na+] [NaNH2, sodium amide]
[1]
  Rate of formation of β-IP: 49.6 g β-IP/h/liter α-IP

## [Na+].[OH-] [NaOH, sodium hydroxide]
[4]
  Rate of formation of β-IP: 79.5 g β-IP/h/liter α-IP
[1]
  Rate of formation of β-IP: 54.6 g β-IP/h/liter α-IP

## [Na] [Na]
[1]
  Rate of formation of β-IP: 53.7 g β-IP/h/liter α-IP

## O=S(=O)([O-])O.[K+] [kHSO4]
[1]
  Rate of formation of β-IP: 44.7 g β-IP/h/liter α-IP
